Read-outs that look alike come from different tables or passages of the source.
What was measured:
nicotinic receptors = test: Nicotinic channel receptor binding: [3H]-cystine binding to crude synaptic membranes from whole rat brain; conditions: 1.25 nM [3H-cystine], about 60 min, about 4° C.
Description: Nicotinic Channel Receptor Binding Protocol:
The activity of the compounds claimed herein at the nicotinic receptor can be accomplished by the following assay.
Binding of […] to nicotinic receptors was accomplished using crude synaptic membrane preparations from whole rat brain (Pabreza et al. Molecular Pharmacol., 1990, 39:9). Washed membranes were stored at about -80° C. prior to use. Frozen aliquots were slowly thawed and resuspended in 20 volumes of buffer (containing: […] NaCl, 5 mM KCl, 2 mM MgCl2, 2 mM Tris-Cl, ph 7.4 @4° C.). After centrifuging at 20,000×g for 15 minutes, the pellets were resuspended in about 30 volumes of buffer. Homogenate (containing about 125-150 ug protein) was added to tubes containing concentrations of test compound and [^3 H-cystine] (1.25 nM) in a final volume of 500 uL. Samples were incubated for about 60 minutes at about 4° C., then rapidly filtered through GF/B filters presoaked in 0.5% polyethylimine using 3×4 mL of ice cold buffer. The filters were counted.

[1] = target: muscarinic acetylcholine receptors; test: Inhibition of specific binding of 3H-Oxotremorine-M (3H-Oxo) to rat cortex membranes; set-up: species or system male Wistar rats; conditions: 1.0 nM 3H-Oxotremorine, 30 min, 25° C., pH 7.4
Excerpt: The pharmacological properties of the compounds of the invention can be illustrated by determining their capability to inhibit the specific binding of ^3 H-Oxotremorine-M (^3 H-Oxo). Birdsdall N. J. M., Hulme E. C., and Burgen A. S. V. (1980). "The Character of Muscarinic Receptors in Different Regions of the Rat Brain". Proc. Roy. Soc. London (Series B) 207,1.
^3 H-Oxo labels muscarinic receptor in the CNS (with a preference for agonist domains of the receptors). Three different sites are labeled by ^3 H-Oxo. […] Using the present experimental conditions only the high and medium affinity sites are determined.
The inhibitory effects of compounds on ^3 H-oxo binding reflects the affinity for muscarinic acetylcholine receptors.
(§1) All preparations are performed at 0-4° C. unless otherwise indicated. Fresh cortex (0.1-1 g) from male Wistar rats (150-250 g) is homogenized for 5-10 s in 10 mL 20 nM Hepes pH: 7.4, with an Ultra-Turrax homogenizer. The homogenizer is rinsed with 10 mL of buffer and the combined suspension centrifuged for 15 min. at 40,000×g. The pellet is washed three times with buffer. In each step the pellet is homogenized as before in 2×10 mL of buffer and centrifuged for 10 min. at 40,000×g.
The final pellet is homogenized in 20 mM Hepes pH: 7.4 (100 mL per g of original tissue) and used for binding assay. Aliquots of 0.5 mL is added 25 μL of test solution and 25 μL of ^3 H-Oxotremorine (1.0 nM, final concentration) mixed and incubated for 30 min. at 25° C. Non-specific binding is determined in triplicate using arecoline (1 μg/mL, final concentration) as the test substance. After incubation samples are added 5 mL of ice-cold buffer and poured directly onto Whatman GF/C glass fiber filters under suction and immediately washed 2 times with 5 mL of ice-cold buffer. The amount of radioactivity on the filters are determined by conventional liquid scintillation counting. Specific binding is total binding minus non specific binding.
Test substances are dissolved in 10 mL water (if necessary heated on a steam-bath for less than 5 min.) at a concentration of 2.2 mg/mL. 25-75% inhibition of specific binding must be obtained before calculation of IC50. The test value will be given as IC50 (the concentration (nM) of the test substance which inhibits the specific binding of ^3 H-oxo by 50%). IC50 =(applied test substance concentration) x([…])nM where Co is specific binding in control assays and Cx is the specific binding in the test assay. (The calculations assume normal mass-action kinetics).

[2] = target: T1, muscarinic receptors (M1-site, pirenzepine sensitive site) (Rattus norvegicus, UniProt P08482); test: Inhibition of 3HPRZ (pirenzepine, [N-methyl-3H]) binding to rat cerebral cortex membranes; set-up: species or system male Wistar rats
T1 construct: from tissue; host or cells: cerebral cortex membranes of male Wistar rats
T1 sequence (P08482 1-460): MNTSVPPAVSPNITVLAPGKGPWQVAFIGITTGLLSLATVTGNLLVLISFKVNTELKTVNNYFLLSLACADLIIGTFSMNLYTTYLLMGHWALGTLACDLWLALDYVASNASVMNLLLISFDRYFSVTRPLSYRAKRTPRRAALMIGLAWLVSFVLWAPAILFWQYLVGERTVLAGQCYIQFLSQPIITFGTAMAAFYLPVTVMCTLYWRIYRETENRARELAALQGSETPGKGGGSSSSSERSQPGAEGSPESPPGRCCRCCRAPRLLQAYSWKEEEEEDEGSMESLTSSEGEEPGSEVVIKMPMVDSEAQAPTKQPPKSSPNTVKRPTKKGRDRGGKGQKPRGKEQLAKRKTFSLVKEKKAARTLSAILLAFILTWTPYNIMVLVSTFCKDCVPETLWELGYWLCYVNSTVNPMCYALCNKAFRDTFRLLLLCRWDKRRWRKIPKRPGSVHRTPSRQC
Description: Furthermore the pharmacological properties of the compounds of the invention can also be illustrated by determining their capability to inhibit ^3 HPRZ (pirenzepine, [N-methyl-^3 H]) binding to rat cerebral cortex membranes.
Pirenzepine binds selectively to subtype of muscarinic receptors. Historically the type is named the M1 -site, whereas pirenzepine sensitive site would be more appropriate.
as §1, with “cortex ([…])” for “cortex (0.1-1 g)”, “rats (150-200” for “rats (150-250”, “20 mM” for “20 nM”, “with 2×10” for “with 10”, “in 3×10” for “in 2×10”
The final pellet is homogenized in 20 MM Hepes pH: 7.4 (100 mL per g of original tissue) and used for binding assay. Aliquots of 0.5 mL is added 20 μL of test solution and 25 μL of ^3 HPRZ (1.0 nM, final conc.), mixed and incubated for 60 min. at 20° C. Non-specific binding is determined in triplicate using atropine (1.0 μg/mL, final conc.) as the test substance. After incubation samples are added 5 mL of ice-cold buffer and poured directly onto Whatman GF/C glass fiber filters under suction and immediately washed 2 times with 5 mL of ice-cold buffer.
The amount of radioactivity on the filters are determined by conventional liquid scintillation counting. Specific binding is total binding minus non-specific binding.
Test substances are dissolved in 10 mL water, at a concentration of 0.22 mg/mL. 25-75% inhibition of specific binding must be obtained before calculation of IC50.
The test value will be given as IC50 (the concentration (nM) of the test substance which inhibits the specific binding of ^3 HPRZ by 50%). IC50 =(applied test substance concentration) x(Cx /Co -Cx)nM where Co is specific binding in control assays and Cx is the specific binding in the test assay. (The calculations assume normal mass-action kinetics).

[3] = rat cerebral cortex, 1.0 nM 3HPRZ, 60 min, 20° C., pH 7.4, read-out: 3HPRZ IC50

IC50 [1]	IC50 [2, 3]	Compound	Ki (nicotinic receptors)	IC50 [2]
		C[N+](C)(C)CCOc1cnccn1 [Compound 27, 2-(2-Trimethylaminoethoxy)pyrazine iodide]	110 nM	
		CCCCSc1nccnc1OC1CN2CCC1CC2 (racemic) [Compound 6, (+/-)-3-Butylthio-2-(1-azabicyclo[2.2.2]octyl-3-oxy)pyrazine]	5490 nM	
3.2 nM	0.54 nM	FC(F)(F)CCCSc1nccnc1O[C@@H]1CN2CCC[C@H]1C2 (relative stereo) [Compound 35, (±)-endo-2-(4,4,4-Trifluorobutylthio)-3-(1-azabicyclo[3.2. 1]octyl-6-oxy)pyrazine]		
3.4 nM	1.7 nM	CC(C)CSc1nccnc1O[C@@H]1CN2CCC[C@H]1C2 (relative stereo) [Compound 31, (±)-endo-2-(2-Methylpropylthio)-3-(1-azabicyclo[3.2. 1]octyl-6-oxy)pyrazine]		
4.4 nM	0.82 nM	CCCCCSc1nccnc1O[C@@H]1CN2CCC[C@H]1C2 (relative stereo) [Compound 30, (±)-endo-2-Pentylthio-3-(1-azabicyclo[3.2.1]octyl-6-oxy)pyrazine]		
6.2 nM	3.3 nM	FC(F)(F)Oc1ccc(CSc2nccnc2O[C@@H]2CN3CCC[C@H]2C3)cc1 (relative stereo) [Compound 38, (±)-endo-2-(4-Trifluoromethoxybenzylthio)-3-(1-azabicyclo[3.2. 1]octyl-6-oxy)pyrazine]		
		Clc1nccnc1O[C@H]1CN2CCC[C@@H]1C2 (relative stereo) [Compound 19, 3-Chloro-2-[endo-(+,-)-6-(1-azabicyclo[3.2.1]octyloxy)]-pyrazine]	2780 nM	
10 nM	80 nM	CCCSc1cncc(O[C@@H]2CN3CCC[C@H]2C3)n1 (relative stereo) [Compound 39, (±)-endo-2-Propylthio-6-(1-azabicyclo[3.2.1]octyl-6-oxy)pyrazine]		
1.5 nM	0.7 nM	FC(F)(F)CSc1nccnc1O[C@@H]1CN2CCC[C@H]1C2 (relative stereo) [Compound 33, (±)-endo-2-(2,2,2,-Trifluoroethylthio)-3-(1-azabicyclo[3.2. 1]octyl-6-oxy)pyrazine]		
3.2 nM	1.6 nM	COCCSc1nccnc1O[C@@H]1CN2CCC[C@H]1C2 (relative stereo) [Compound 41, (±)-endo-2-(2-Methoxyethylthio)-3-(1-azabicyclo[3.2. 1]octyl-6-oxy)pyrazine]		
2 nM	0.66 nM	C/C=C/CSc1nccnc1O[C@@H]1CN2CCC[C@H]1C2 (relative stereo) [Compound 34, (±)-endo-2-(trans-2-Butenylthio)-3-(1-azabicyclo[3.2. 1]octyl-6-oxy)pyrazine]		
60 nM	17 nM	FC(F)(F)CSc1cncc(O[C@@H]2CN3CCC[C@H]2C3)n1 (relative stereo) [Compound 40, (±)-endo-2-(2.2.2-Trifluoroethylthio)-6-(1-azabicyclo[3.2. 1]octyl-6-oxy)pyrazine]		
9.1 nM	4.8 nM	C(=Cc1ccccc1)CSc1nccnc1O[C@@H]1CN2CCC[C@H]1C2 (relative stereo) [Compound 42, (±)-endo-2-(3-Phenyl-2-propenylthio)-3-(1-azabicyclo[3.2. 1]octyl-6-oxy)pyrazine]		
		CCCCSc1nccnc1OCC[N+](C)(C)C [Compound 18, 3-(1-Butylthio)-2-(2-(trimethylamino)ethoxy)pyrazine iodide]	580 nM	
		CCCCSc1nccnc1OCCN(C)C [Compound 17]	21400 nM	
8.1 nM	2.2 nM	CC(C)=CCCSc1nccnc1O[C@@H]1CN2CCC[C@H]1C2 (relative stereo) [Compound 43, (±)-endo-2-(4-Methyl-3-pentenylthio)-3-(1-azabicyclo[3.2. 1]octyl-6-oxy)pyrazine]		
1.3 nM	0.76 nM	CC(C)CCSc1nccnc1O[C@@H]1CN2CCC[C@H]1C2 (relative stereo) [Compound 37, (±)-endo-2-(3-Methylbutylthio)-3-(1-azabicyclo[3.2. 1]octyl-6-oxy)pyrazine]		
2.2 nM	0.54 nM	CCCCSc1nccnc1O[C@@H]1CN2CCC[C@H]1C2 (relative stereo) [Compound 24, 3-(1-butylthio)-2-[endo-(+,-)-6-(1-azabicyclo[3.2.1]octyloxy)]-pyrazine]		
0.34 nM	5.8 nM	C=CCSc1nccnc1O[C@@H]1CN2CCC[C@H]1C2 (relative stereo) [Compound 36, (±)-endo-2-(2-propenylthio)-3-(1-azabicyclo[3.2.1]octyl-6-oxy)pyrazine]		
1.7 nM	0.68 nM	CCCSc1nccnc1O[C@@H]1CN2CCC[C@H]1C2 (relative stereo) [Compound 29, (±)-endo-2-Propylthio-3-(1-azabicyclo[3.2.1]octyl-6-oxy)pyrazine]		

Compound	IC50 [1]	IC50 [2, 3]	Ki (nicotinic receptors)	IC50 [2]
CCSc1nccnc1O[C@@H]1CN2CCC[C@H]1C2 (relative stereo) [Compound 32, (±)-endo-2-Ethylthio-3-(1-azabicyclo[3.2.1]octyl-6-oxy)pyrazine]	3.9 nM	4 nM		
CCCCOc1nccnc1O[C@@H]1CN2CCC[C@H]1C2 (relative stereo) [Compound 23, 3-(1-butyloxy)-2-[endo-(+,-)-6-(1-azabicyclo[3.2.1]octyloxy)]-pyrazine]	4.9 nM			2.7 nM

Reference: patent publication US6194416A, “Heterocyclic compounds and their use” (Eli Lilly and Company, priority 1997, dated 2001)
